Source: patent publication US8426620B2, “Production methods of furan fatty acids” (Kyungpook National University Industry-Academic Cooperation …, priority 2011, dated 2013)
Entries after “also recorded” stand apart in the source; their conditions may differ.

Test: DPPH radical scavenging (antioxidant) assay
Conditions: for radical scavenging activity (in words): DPPH assay, up to 100 μg/mL, FIG. 8
Procedure: Antioxidant activity was analyzed using 2,2-Diphenyl-1-picryhydrazyl (DPPH) assay according to the reports (22). Briefly, 50 μl of sample solution in DMSO was added to 200 μl of 200 μM DPPH radical solution in a 96-well plate. L-ascorbic acid and α-Tocopherol were used as positive controls. After 30 min of incubation at 37° C., the absorbance at 515 nm was measured. DPPH free radical scavenging activities was calculated using the equation; radical scavenging activity (%)=[1−(Asample−Ablank)/(Acontrol−Ablank)]×100. DMSO was used as a control.

Row | SMILES | radical scavenging activity (in words) | radical scavenging activity (highest concentration tested, 100 μg/mL, 30 min at 37° C., absorbance 515 nm) [%]
1 | CCCCCCCCc1ccc(CCCCCC(=O)O)o1 [7,10-EODA, 7,10-epoxy-octadeca-7,9-dienoic acid] | radical scavenging activity increasing in a dose-dependent manner; also recorded: increased dose-dependently | 23
2 | CCCCCCCC[C@H](O)/C=C/[C@@H](O)CCCCCC(=O)O [DOD, 7,10-dihydroxy-8(E)-octadecenoic acid, reference compound] | did not show any activity | –
